Laboratory results from publication PMC7412250, “Novel Chrysin-De-Allyl PAC-1 Hybrid Analogues as Anticancer Compounds: Design, Synthesis, and Biological Evaluation” (Molecules, 2020).

Key:
MDA-MB-231 cells = assay: Cell cycle analysis by PI flow cytometry; type: cell-based, human; settings: 24 h, vehicle 4.46%
Protocol: MDA-MB-231 cells were plated into 6-well plates at 2.5 × 10^5 cells/well. […] Next, the cells were trypsinized with 0.05% trypsin, 2.21 mM EDTA, 1×, washed, counted, and resuspended in 1 mL of ice-cold PBS. The cells then were stained with propidium iodide (PI) dye and incubated for at least 15 min. The distribution of the cells in each cell cycle phase for the different concentrations was measured using a BD Accuri™ C6 flow cytometer from BD Biosciences (Becton-Dickinson, San Jose, CA, USA) and analyzed using FCS Express 5 plus De Novo software (Glendale, CA, USA).

BT-20, U-251, and HCT116 = assay: MTT cytotoxicity assay, three cancer cell lines stated together; type: cell-based; settings: range across the three cancer cell lines, read-out: IC50 values, range over BT-20, U-251 and HCT116
Protocol: A panel of cancer cell lines, including breast (MDA-MB-231, BT20), brain (U251), and colon (HCT116), as well as a normal cell line (human mammary epithelial cells: HMECs), were grown as adherent monolayers in flasks with Dulbecco’s Modified Eagle Medium (DMEM), supplemented with 10% fetal bovine serum (FBS) and 1% penicillin and streptomycin in a humidified incubator with 5% CO2 at 37 °C.
The (3-(4,5-dimethylthiazol-2-yl)-2,5-diphenyltetrazolium bromide) (MTT) assay was used to determine the cytotoxicity of the 15 chrysin derivatives in the above-mentioned cell lines. Briefly, cells were harvested with 0.05% trypsin, 2.21 mM ethylenediaminetetraacetic acid (EDTA), 1× from Corning (Corning, NY, USA), and suspended at a final density of 5 × 10^3 cells/well. Cells were seeded (180 μL/well) into 96-well plates. Initially, four different concentrations of each compound were added to find the compounds with the greatest antiproliferative efficacy in the MDA-MB-231 cell line (0, 1, 10, and 100 μM). […] The absorbance was determined at 590 nm using a DTX 880 multimode detector (Beckman Coulter life sciences, IN, USA). The IC50 ± SD concentrations were calculated from three experiments performed in triplicate/duplicate. The IC50 values were calculated from the cell survival percentages obtained for each compound tested at different concentrations. […]

## O=C(COc1cc(O)c2c(=O)cc(-c3ccccc3)oc2c1)N/N=C/c1ccc(O)cc1O [Compound 4g, (E,Z)-N’-(2,4-Dihydroxybenzylidene)-2-((5-hydroxy-4-oxo-2-phenyl-4H-chromen-7-yl)oxy)acetohydrazide]
MDA-MB-231 cells; 5 µM
  % of cells in G2 phase: 59.12%
MDA-MB-231 cells; 10 µM
  % of cells in G2 phase: 54.13%

## O=C(COc1cc(O)c2c(=O)cc(-c3ccccc3)oc2c1)N/N=C/c1ccc(O)c(O)c1O [Compound 4i, (E,Z)-2-((5-Hydroxy-4-oxo-2-phenyl-4H-chromen-7-yl)oxy)-N’-(2,3,4-trihydroxybenzylidene)acetohydrazide]
BT-20, U-251, and HCT116
  IC50: 10 to 25 µM
